compound: O=C(/C=C/c1ccccc1)NC(NC(=S)Nc1cccc2cccnc12)C(Cl)(Cl)Cl [Salubrinal] + CC1(C)CCC(c2ccc(Cl)cc2)=C(CN2CCN(c3ccc(C(=O)NS(=O)(=O)c4ccc(N[C@H](CCN5CCOCC5)CSc5ccccc5)c(S(=O)(=O)C(F)(F)F)c4)cc3)CC2)C1 [Navitoclax] (partner 0.5 µM); experiment: relative viability (nuclei count vs DMSO), 5 days (fraction); higher = more cells survive; settings: first compound 0.8 µM
Procedure, shortened: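 Relative viability equals treated-well nuclei counts divided by vehicle-well nuclei counts. Counts came from 4× images of lung cancer cell lines grown in 1536-well plates for 5 days after pin-tool dosing on the day after seeding. Dosing used one drug alone or a fixed anchor-drug dose plus five library-drug doses (not always all listed) in √10 steps, and values are medians of duplicate plates.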

Going from SK-LU-1 to NCI-H1395, the relative viability rises from 1.02 to 1.12.

First: 201T
Second: NCI-H1915
The relative viability of the first is higher: 1.24 for the first, 0.83 for the second.

Going from HCC-827 to LXF-289, the relative viability falls from 1.1 to 1.04.

Compared with NCI-H23, NCI-H647 is higher in relative viability: 0.91 for the first, 1.22 for the second.

CAL-12T and NCI-H1651 are the same in relative viability: 1.21 for the first, 1.21 for the second.

First: EPLC-272H
Second: NCI-H2228
The relative viability of the first is higher: 1.4 for the first, 0.888 for the second.

First: NCI-H1355
Second: NCI-H3122
The relative viability of the first is higher: 1.07 for the first, 1.06 for the second.

Compared with NCI-H1437, NCI-H1755 is lower in relative viability: 1.16 for the first, 0.928 for the second.

In the case of NCI-H2023, the relative viability is reported as 0.96.

same assay, conditions: first compound 2.53 µM

Compared with NCI-H2405, HOP-62 is higher in relative viability: 0.82 for the first, 1.01 for the second.

Going from SK-MES-1 to LU99A, the relative viability falls from 1.24 to 0.858.

First: BEN
Second: HARA
The relative viability of the first is lower: 0.0706 for the first, 1.16 for the second.

Compared with HCC-78, NCI-H322M is higher in relative viability: 0.764 for the first, 1.23 for the second.

Compared with NCI-H2009, A-427 is lower in relative viability: 1.17 for the first, 0.886 for the second.

Going from NCI-H441 to NCI-H1734, the relative viability rises from 0.678 to 0.858.

Compared with NCI-H460, NCI-H2347 is lower in relative viability: 1.17 for the first, 0.728 for the second.

First: SK-LU-1
Second: NCI-H1395
The relative viability of the first is lower: 0.859 for the first, 1.06 for the second.

Compared with 201T, NCI-H1915 is lower in relative viability: 1.19 for the first, 0.759 for the second.

Compared with HCC-827, LXF-289 is lower in relative viability: 1.05 for the first, 0.943 for the second.

Going from NCI-H23 to NCI-H647, the relative viability rises from 0.759 to 1.07.

Compared with CAL-12T, EPLC-272H is higher in relative viability: 1.09 for the first, 1.19 for the second.

First: NCI-H2228
Second: NCI-H1355
The relative viability of the first is higher: 1.07 for the first, 0.949 for the second.

Compared with NCI-H3122, NCI-H1437 is higher in relative viability: 1.06 for the first, 1.08 for the second.

Going from NCI-H1755 to NCI-H2023, the relative viability falls from 1.05 to 1.01.

same assay, conditions: first compound 8 µM

Going from NCI-H2405 to HOP-62, the relative viability rises from 0.905 to 0.958.

Compared with SK-MES-1, LU99A is lower in relative viability: 1.12 for the first, 0.828 for the second.

First: BEN
Second: HARA
The relative viability of the first is lower: 0.0675 for the first, 1.11 for the second.

First: HCC-78
Second: NCI-H322M
The relative viability of the first is lower: 0.769 for the first, 1.16 for the second.

Compared with LCLC-97TM1, NCI-H2009 is higher in relative viability: 0.433 for the first, 1.07 for the second.

First: A-427
Second: NCI-H441
The relative viability of the first is higher: 0.926 for the first, 0.913 for the second.

First: NCI-H1734
Second: NCI-H460
The relative viability of the first is lower: 0.745 for the first, 1.03 for the second.

NCI-H2347 and SK-LU-1 are the same in relative viability: 0.864 for the first, 0.864 for the second.

Going from NCI-H1395 to 201T, the relative viability falls from 1.29 to 1.22.

Going from NCI-H1915 to HCC-827, the relative viability rises from 0.774 to 0.979.

First: LXF-289
Second: NCI-H23
The relative viability of the first is lower: 0.868 for the first, 1.04 for the second.

Compared with NCI-H647, CAL-12T is higher in relative viability: 1.03 for the first, 1.06 for the second.

Compared with NCI-H1651, EPLC-272H is higher in relative viability: 0.979 for the first, 1.04 for the second.

Compared with NCI-H2228, NCI-H1355 is higher in relative viability: 0.767 for the first, 0.87 for the second.

NCI-H3122 and NCI-H1437 are the same in relative viability: 1.09 for the first, 1.09 for the second.

Going from NCI-H1755 to NCI-H2023, the relative viability falls from 0.969 to 0.932.
